Each molecule was assayed against PI3K delta (Homo sapiens (Human), UniProt O00329) (assay: Biochemical assay for PI3Kdelta (Adapta TR-FRET format)). Settings: enzymatic assay.
Source text: For the enzymatic assays, the preparation of PI3K gene constructs, protein expression and purification for HTS are described in WO2012/004299. […] The TR-FRET Adapta™ Universal Kinase Assay Kit was purchased from Invitrogen Corporation (Carlsbad/CA, USA) (Cat. No. PV5099). The kit contains the following reagents: Adapta Eu-anti-ADP Antibody (Europium labeled anti-ADP antibody in HEPES buffered saline, Cat. No. PV5097), Alexa Fluor® 647-labeled ADP tracer (Alexa Fluor® 647-labeled ADP tracer in HEPES buffered saline, Cat. No. PV5098), proprietary TR-FRET dilution buffer pH 7.5 (Cat. No. PV3574). PIK3CD substrate Phosphatidylinositol was obtained from Invitrogen (vesicules consisting of 2 mM PI in 50 mM HEPES pH7.5; Cat. No. PV5371). PIK3CG substrate Phosphatidylinositol-4,5-bisphosphate (PIP(4,5)2 was obtained from Invitrogen (PIP2:PS large unilamellar vesicules consisting of 1 mM PI P2: 19 mM PS in 50 mM HEPES pH7.5, 3 mM MgCl2, 1 mM EGTA; Cat. No. PV5100). Time-Resolved Fluorescence Resonance Energy Transfer (TR-FRET) is a technology based on energy transfer between two adjacent dyes, from an excited electron in one dye (the donor) to an electron of an adjacent dye (the acceptor) through resonance, then released as a photon. This energy transfer is detected by an increase in the fluorescence emission of the acceptor, and a decrease in the fluorescence emission of the donor. TR-FRET assays for protein kinases use a long-lifetime lanthanide Terbium or Europium chelates as the donor species which overcome interference from compound autofluorescence or light scatter from precipitated compounds, by introducing a delay after excitation by a flashlamp excitation source. Results are often expressed as a ratio of the intensities of the acceptor and donor fluorophores. The ratiometric nature of such a value corrects for differences in assay volumes between wells, as well as corrects for quenching effects due to colored compounds. The Adapta™ assay can be divided into two phases: a kinase reaction phase and an ADP detection phase. In the kinase reaction phase, all kinase reaction components are added to the well and the reaction is allowed to incubate for a set period of time specific for each kinase. After the reaction, a detection solution of Eu-labeled anti-ADP antibody, Alexa Fluor® 647-labeled ADP tracer, and EDTA (to stop the kinase reaction) are added to the assay well. ADP formed by the kinase reaction will displace the Alexa Fluor® 647-labeled ADP tracer from the antibody, resulting in a decrease in TR-FRET signal. In the presence of an inhibitor, the amount of ADP formed by the kinase reaction is reduced, and the resulting intact antibody-tracer interaction maintains a high TR-FRET signal. In the Adapta™ assay, the donor (Europium-anti-ADP antibody) is excited at 340 nm and will transfer its energy to the acceptor (Alexa Fluor® 647-labeled ADP tracer). The emission from the Alexa Fluor® 647 can be monitored with a filter centered at 665 nm because it is located between the emission peaks of the donor, which is measured at 615/620 nm. 50 nL of compound dilutions were dispensed onto white 384-well small volume polystyrene plate as described in section 2.2. Then 5 μL of PI3Kgamma and PI3Kdelta and lipid substrate (PI or PIP2:PS) followed by 5 μL of ATP (final assay volume 10 μL) are incubated at RT. […] Reactions were stopped with 5 μL of a mixture of EDTA containing the Eu-labeled anti-ADP antibody and the Alexa Fluor® 647-labeled ADP tracer in TR-FRET dilution buffer (proprietary to IVG). Plates are read 15 to 60 mins later in a Synergy2 reader using an integration time of 0.4 seconds and a delay of 0.05 seconds. […] The control for the 0% inhibition was given by the solvent vehicle of the compounds (90% DMSO in H2O). Data are analyzed using Excel fit software or Graphpad Prism. EC50 values were derived by fitting a sigmoidal dose-response curve to a plot of assay readout over inhibitor concentration. […]

PI3K delta, sequence (O00329 2-1044): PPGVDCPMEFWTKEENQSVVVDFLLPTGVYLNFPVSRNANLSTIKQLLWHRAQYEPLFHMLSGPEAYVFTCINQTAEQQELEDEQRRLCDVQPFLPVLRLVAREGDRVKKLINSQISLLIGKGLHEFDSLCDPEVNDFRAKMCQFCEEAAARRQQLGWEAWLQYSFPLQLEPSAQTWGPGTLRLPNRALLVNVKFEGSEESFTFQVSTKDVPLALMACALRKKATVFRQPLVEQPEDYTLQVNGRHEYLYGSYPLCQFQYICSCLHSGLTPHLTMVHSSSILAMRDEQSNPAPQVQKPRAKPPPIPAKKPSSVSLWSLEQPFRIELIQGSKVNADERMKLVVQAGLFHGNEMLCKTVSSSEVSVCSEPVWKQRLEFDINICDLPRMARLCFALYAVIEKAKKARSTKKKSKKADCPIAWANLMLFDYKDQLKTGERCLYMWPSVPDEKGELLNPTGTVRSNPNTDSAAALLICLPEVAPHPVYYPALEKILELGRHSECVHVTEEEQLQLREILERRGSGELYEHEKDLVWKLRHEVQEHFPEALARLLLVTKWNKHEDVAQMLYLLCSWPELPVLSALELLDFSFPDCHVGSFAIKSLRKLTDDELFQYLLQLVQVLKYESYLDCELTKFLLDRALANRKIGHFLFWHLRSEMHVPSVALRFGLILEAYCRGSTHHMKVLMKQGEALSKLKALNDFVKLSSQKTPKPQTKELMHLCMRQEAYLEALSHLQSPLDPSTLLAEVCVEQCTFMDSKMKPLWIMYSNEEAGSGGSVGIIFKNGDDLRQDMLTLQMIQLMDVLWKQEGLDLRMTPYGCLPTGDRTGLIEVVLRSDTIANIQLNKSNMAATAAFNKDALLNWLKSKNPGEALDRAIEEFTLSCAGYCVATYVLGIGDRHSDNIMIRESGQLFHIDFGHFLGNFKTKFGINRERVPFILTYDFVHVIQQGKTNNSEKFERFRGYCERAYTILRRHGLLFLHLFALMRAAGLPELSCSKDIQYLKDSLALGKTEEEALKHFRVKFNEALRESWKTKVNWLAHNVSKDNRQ
PI3K delta, sequence (P27986 461-568 partner): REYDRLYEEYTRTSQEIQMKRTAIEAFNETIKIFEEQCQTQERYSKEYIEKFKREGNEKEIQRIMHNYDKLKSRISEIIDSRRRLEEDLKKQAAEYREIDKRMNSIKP

Row | Structure (SMILES) | IC50
1 | Cc1nc(N)nc(N2C[C@@H](O)C[C@H]2c2nc3ccc(F)c(-c4cnn(C)c4)c3c(=O)n2-c2ccccc2)c1C#N [Example 1, 2-Amino-4-((2S,4S)-2-(6-fluoro-5-(1-methyl-1H-pyrazol-4-yl)-4-oxo-3-phenyl-3,4-dihydroquinazolin-2-yl)-4-hydroxypyrrolidin-1-yl)-6-methylpyrimidine-5-carbonitrile] | 8 nM
2 | COc1ncc(-c2cccc3nc([C@@H]4CCCN4c4ncnc(N)c4C#N)n(-c4ccccc4)c(=O)c23)cn1 [Example 3, (S)-4-Amino-6-(2-(5-(2-methoxypyrimidin-5-yl)-4-oxo-3-phenyl-3,4-dihydroquinazolin-2-yl)pyrrolidin-1-yl)pyrimidine-5-carbonitrile] | 8 nM
3 | COc1ncc(-c2cccc3nc([C@@H]4CCCN4c4nc(N)nc(C)c4C#N)n(-c4ccccc4)c(=O)c23)cn1 [Example 4, (S)-2-Amino-4-(2-(5-(2-methoxypyrimidin-5-yl)-4-oxo-3-phenyl-3,4-dihydroquinazolin-2-yl)pyrrolidin-1-yl)-6-methylpyrimidine-5-carbonitrile] | 6 nM
4 | Cn1cc(-c2c(F)ccc3nc([C@@H]4CCCN4c4ncnc(N)c4C#N)n(-c4ccccc4)c(=O)c23)cn1 [Example 5, (S)-4-Amino-6-(2-(6-fluoro-5-(1-methyl-1H-pyrazol-4-yl)-4-oxo-3-phenyl-3,4-dihydroquinazolin-2-yl)pyrrolidin-1-yl)pyrimidine-5-carbonitrile] | 4 nM
5 | Cc1nc(N)nc(N2CCC[C@H]2c2nc3ccc(F)c(-c4cnn(C)c4)c3c(=O)n2-c2ccccc2)c1C#N [Example 6, (S)-2-Amino-4-(2-(6-fluoro-5-(1-methyl-1H-pyrazol-4-yl)-4-oxo-3-phenyl-3,4-dihydroquinazolin-2-yl)pyrrolidin-1-yl)-6-methylpyrimidine-5-carbonitrile] | 9 nM
6 | COc1ncc(-c2c(F)ccc3nc([C@@H]4C[C@H](O)CN4c4nc(N)nc(C)c4C#N)n(-c4ccccc4)c(=O)c23)cn1 [Example 7, 2-Amino-4-((2S,4S)-2-(6-fluoro-5-(2-methoxypyrimidin-5-yl)-4-oxo-3-phenyl-3,4-dihydroquinazolin-2-yl)-4-hydroxypyrrolidin-1-yl)-6-methylpyrimidine-5-carbonitrile] | 6 nM
7 | Cn1cc(-c2c(F)ccc3nc([C@@H]4C[C@H](O)CN4c4ncnc(N)c4C#N)n(-c4ccccc4)c(=O)c23)cn1 [Example 8, 4-Amino-6-((2S,4S)-2-(6-fluoro-5-(1-methyl-1H-pyrazol-4-yl)-4-oxo-3-phenyl-3,4-dihydroquinazolin-2-yl)-4-hydroxypyrrolidin-1-yl) pyrimidine-5-carbonitrile] | 14 nM
8 | COc1ncc(-c2c(F)ccc3nc([C@@H]4C[C@H](O)CN4c4nc(N)nc(C)c4C#N)n(-c4ccccc4)c(=O)c23)s1 [Example 9, 2-Amino-4-((2S,4S)-2-(6-fluoro-5-(2-methoxythiazol-5-yl)-4-oxo-3-phenyl-3,4-dihydroquinazolin-2-yl)-4-hydroxypyrrolidin-1-yl)-6-methylpyrimidine-5-carbonitrile] | 8 nM
9 | CO[C@H]1C[C@@H](c2nc3cccc(-c4cnn(C)c4)c3c(=O)n2-c2ccccc2)N(c2nc(N)nc(C)c2C#N)C1 [Example 10, 2-Amino-4-((2S,4S)-4-methoxy-2-(5-(1-methyl-1H-pyrazol-4-yl)-4-oxo-3-phenyl-3,4-dihydroquinazolin-2-yl)pyrrolidin-1-yl)-6-methylpyrimidine-5-carbonitrile] | 6 nM
10 | CO[C@H]1C[C@@H](c2nc3cccc(-c4cnn(C)c4)c3c(=O)n2-c2ccccc2)N(c2nc(N)nc3[nH]cnc23)C1 [Example 11, 2-((2S,4S)-1-(2-Amino-9H-purin-6-yl)-4-methoxypyrrolidin-2-yl)-5-(1-methyl-1H-pyrazol-4-yl)-3-phenylquinazolin-4(3H)-one] | 45 nM
11 | COc1ncc(-c2cccc3nc([C@@H]4C[C@H](OC)CN4c4nc(N)nc(C)c4C#N)n(-c4ccccc4)c(=O)c23)cn1 [Example 12, 2-Amino-4-((2S,4S)-4-methoxy-2-(5-(2-methoxypyrimidin-5-yl)-4-oxo-3-phenyl-3,4-dihydroquinazolin-2-yl)pyrrolidin-1-yl)-6-methylpyrimidine-5-carbonitrile] | 5 nM
12 | Cc1nc(N)nc(N2CCC[C@H]2c2nc3cccc(-c4cnn(C)c4)c3c(=O)n2-c2ccccc2)c1C#N [Example 13, (S)-2-Amino-4-methyl-6-(2-(5-(1-methyl-1H-pyrazol-4-yl)-4-oxo-3-phenyl-3,4-dihydroquinazolin-2-yl)pyrrolidin-1-yl)pyrimidine-5-carbonitrile] | 7 nM
13 | Cc1ccccc1-n1c([C@@H]2CCCN2c2ncnc(N)c2C#N)nc2cccc(-c3cnn(C)c3)c2c1=O [Example 14, (S)-4-Amino-6-(2-(5-(1-methyl-1H-pyrazol-4-yl)-4-oxo-3-(otolyl)-3,4-dihydroquinazolin-2-yl)pyrrolidin-1-yl)pyrimidine-5-carbonitrile] | 74 nM
14 | Cn1cnc(-c2cccc3nc([C@@H]4CCCN4c4ncnc(N)c4C#N)n(-c4ccccc4)c(=O)c23)c1 [Example 15, (S)-4-Amino-6-(2-(5-(1-methyl-1H-imidazol-4-yl)-4-oxo-3-phenyl-3,4-dihydroquinazolin-2-yl)pyrrolidin-1-yl)pyrimidine-5-carbonitrile] | > 10000 nM
15 | Cc1nc(N)nc(N2C[C@@H](O)C[C@H]2c2nc3cccc(-c4cnn(C)c4)c3c(=O)n2-c2ccccc2)c1C#N [Example 16, 2-Amino-4-((2S,4S)-4-hydroxy-2-(5-(1-methyl-1H-pyrazol-4-yl)-4-oxo-3-phenyl-3,4-dihydroquinazolin-2-yl)pyrrolidin-1-yl)-6-methylpyrimidine-5-carbonitrile] | 7 nM
16 | Cc1nc(N)nc(N2CCC[C@H]2c2nc3cccc(-c4cncnc4)c3c(=O)n2-c2ccccc2)c1C#N [Example 17, (S)-2-Amino-4-methyl-6-(2-(4-oxo-3-phenyl-5-(pyrimidin-5-yl)-3,4-dihydroquinazolin-2-yl)pyrrolidin-1-yl)pyrimidine-5-carbonitrile] | 21 nM
17 | COc1cncc(-c2cccc3nc([C@@H]4CCCN4c4nc(N)nc(C)c4C#N)n(-c4ccccc4)c(=O)c23)c1 [Example 18, (S)-2-Amino-4-(2-(5-(5-methoxypyridin-3-yl)-4-oxo-3-phenyl-3,4-dihydroquinazolin-2-yl)pyrrolidin-1-yl)-6-methylpyrimidine-5-carbonitrile] | 14 nM
18 | Cc1ncc(-c2cccc3nc([C@@H]4CCCN4c4nc(N)nc(C)c4C#N)n(-c4ccccc4)c(=O)c23)cn1 [Example 19, (S)-2-Amino-4-methyl-6-(2-(5-(2-methylpyrimidin-5-yl)-4-oxo-3-phenyl-3,4-dihydroquinazolin-2-yl)pyrrolidin-1-yl)pyrimidine-5-carbonitrile] | 17 nM
19 | Cc1nc(N)nc(N2CCC[C@H]2c2nc3cccc(-c4cccnc4)c3c(=O)n2-c2ccccc2)c1C#N [Example 20, (S)-2-Amino-4-methyl-6-(2-(4-oxo-3-phenyl-5-(pyridin-3-yl)-3,4-dihydroquinazolin-2-yl)pyrrolidin-1-yl)pyrimidine-5-carbonitrile] | 15 nM
20 | COc1ccc(-c2cccc3nc([C@@H]4CCCN4c4nc(N)nc(C)c4C#N)n(-c4ccccc4)c(=O)c23)cn1 [Example 21, (S)-2-Amino-4-(2-(5-(6-methoxypyridin-3-yl)-4-oxo-3-phenyl-3,4-dihydroquinazolin-2-yl)pyrrolidin-1-yl)-6-methylpyrimidine-5-carbonitrile] | 24 nM

From patent US9840498B2, “Substituted quinazolin-4-one derivatives” (NOVARTIS AG, priority 2013, dated 2017)
